Data on 10 compounds can be found in patent US20240343729A1 (priority 2021, published 2024).

SMILES strings stand for the structures.

In assay [1] the test system is inflamed colonic mucosa from ulcerative colitis patients. In words: Ex-vivo culture of colon biopsies from ulcerative colitis patients, cytokine release (Protocol 1). The assay is classed as cell-based, human. The note with it: UC colon biopsies, two patients; PF-02545920 0.1 μM and 1 μM, TAK-063 1 uM; 24 h; compared to DMSO vehicle. As to the method:
The effect of selective PDE10A inhibition was tested on inflamed colonic mucosa from ulcerative colitis patients taken during routine endoscopy (Protocol 1 detailed below). These samples retain a disease phenotype in ex-vivo culture, secrete high basal levels of inflammatory cytokines, and represent a highly relevant and translational disease model. The effect of the PDE10A inhibitors on levels of the inflammatory cytokines IL-6 and IL-8 released from these tissue samples were measured. Both IL-6 and IL-8 are key regulators in ulcerative colitis pathology and their levels correlate with disease severity (Waldner M J et al. Master regulator of intestinal disease: IL-6 in chronic inflammation and cancer development. Semin Immunol. 26(1), 75-9 (2014); Bernardo D et al. IL-6 promotes immune responses in human ulcerative colitis and induces a skin-homing phenotype in the dendritic cells and T-cells they stimulate. Eur J Immunol. 42(5), 1337-53 (2012); Pearl D S, Cytokine mucosal expression in ulcerative colitis, the relationship between cytokine release and disease activity. J Crohns Colitis. 7(6), 481-9 (2013)).
These colon biopsies retain an inflammatory phenotype and secrete high levels of inflammatory cytokines in ex-vivo culture.
Biopsy tissue was obtained from inflamed colonic mucosa from ulcerative colitis or Crohn's disease patients during routine endoscopy. […] Biopsies were incubated in organ culture for 24 h with the addition of positive control compounds, or specific PDE10A inhibitors. Supernatants collected at the end of the experiment were snap-frozen and stored at −70° C. For the measurement of cytokines, the frozen culture supernatants were thawed and analysed for levels of the inflammatory cytokines using Luminex cytokine assay kits (R&D Systems) and an R&D Systems MAGPIX® analyser. Mean values±SDs were calculated for the levels of spontaneous cytokine production measured in biopsy culture supernatants from each treatment group.

Assay [2] deals with other PDE family members. The settings on record: literature value; read-out: IC50s for other PDE family members; cited from earlier work.
In assay [3] the target is T1, Human PDE10A2 (Homo sapiens (Human), UniProt Q9Y233). Put plainly: biochemical. The assay is classed as biochemical. The note with it: human PDE10A2 0.25 nM, cGMP 3 μM. As to the method: Semi Log compound dilutions starting at a final concentration of 50 μM were dispensed into a black 384 well plate alongside, DMSO and an Inhibited control using the Echo Acoustic dispenser. […] Data was analysed using a 4-parameter fit.
T1 sequence (Q9Y233 267-1055): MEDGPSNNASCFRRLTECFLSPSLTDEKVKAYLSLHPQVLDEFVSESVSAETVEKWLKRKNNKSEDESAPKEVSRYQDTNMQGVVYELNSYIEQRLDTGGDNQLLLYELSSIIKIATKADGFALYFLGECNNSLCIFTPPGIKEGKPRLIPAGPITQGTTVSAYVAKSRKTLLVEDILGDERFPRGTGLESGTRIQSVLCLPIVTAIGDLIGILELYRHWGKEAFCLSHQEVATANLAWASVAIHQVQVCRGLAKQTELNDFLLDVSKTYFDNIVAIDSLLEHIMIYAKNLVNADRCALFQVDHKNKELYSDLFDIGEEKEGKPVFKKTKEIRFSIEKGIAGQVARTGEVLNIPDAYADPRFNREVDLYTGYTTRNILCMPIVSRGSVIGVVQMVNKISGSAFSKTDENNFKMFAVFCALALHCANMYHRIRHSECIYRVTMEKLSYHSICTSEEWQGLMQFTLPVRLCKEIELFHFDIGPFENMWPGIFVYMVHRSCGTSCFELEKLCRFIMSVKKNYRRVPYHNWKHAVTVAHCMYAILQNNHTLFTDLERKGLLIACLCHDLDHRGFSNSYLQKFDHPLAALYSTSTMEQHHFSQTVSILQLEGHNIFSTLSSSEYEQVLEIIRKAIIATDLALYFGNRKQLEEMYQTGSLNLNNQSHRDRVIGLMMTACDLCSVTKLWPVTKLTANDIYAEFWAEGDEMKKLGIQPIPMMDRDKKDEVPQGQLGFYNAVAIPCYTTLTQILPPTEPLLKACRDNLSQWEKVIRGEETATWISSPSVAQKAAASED

Assay [4] deals with T1, Human PDE10A2. Put plainly: cell-based. The note with it: Forskolin 10 μM; read-out: cAMP HTRF Assay in HEK 293 rhPDE10A2 cell line (pIC50) (converted). As to the method:
Semi log compound dilutions starting at a final concentration of 10 μM were dispensed into a white 384 well plate, alongside DMSO and an Inhibited control using the Tecan D300e digital dispenser. HEK 293 cells overexpressing recombinant human PDE10A2 were seeded on top of the compounds at 2500 cells/well in a volume 5 μL/well. The plate was incubated at room temperature for 60 minutes. To induce endogenous cAMP, 5 μL/well of Forskolin at a final assay concentration of 10 μM was added to the plate. The plate was incubated at room temperature for a further 45 minutes. cAMP HTRF detection reagents were added, and the plate was incubated for 60 minutes at room temperature. […] Data was analysed using a 4-parameter fit.
(In general: In TR-FRET formats the signal depends on donor and acceptor labels being close together.)

The test system of assay [5] is inflamed colonic mucosa from pharmacotherapy treatment-refractory ulcerative colitis patients. In words: Ex-vivo culture of resected colon tissue from treatment-refractory ulcerative colitis patients, TNFα release (Protocol 2). The assay is classed as cell-based, human. The note with it: 1 μM; two UC patients; SEB present; about 18 hours; compared to DMSO vehicle.
For assay [6], the system named is inflamed colonic mucosa from Crohn's Disease patients. In words: Ex-vivo culture of colon biopsies from Crohn's disease patients, cytokine release (Protocol 1). The assay is classed as cell-based, human. The settings on record: 0.1 uM; 2 independent CD patient biopsies; compared to DMSO vehicle. As to the method:
In addition, we tested the effect of selective PDE10A inhibition using 0.1 uM PF-2545920 on inflamed colonic mucosa from Crohn's Disease patients taken during routine endoscopy (Protocol 1).
Biopsy tissue was obtained from inflamed colonic mucosa from ulcerative colitis or Crohn's disease patients during routine endoscopy. Ex-vivo biopsy cultures for the analysis of inflammatory cytokine biomarkers were run as previously described (Vossenksmper A. et al. A CD3-specific antibody reduces cytokine production and alters phosphoprotein profiles in intestinal tissues from patients with inflammatory bowel disease. Gastroenterology, 147, 172-183 (2014)). Biopsies were incubated in organ culture for 24 h with the addition of positive control compounds, or specific PDE10A inhibitors. Supernatants collected at the end of the experiment were snap-frozen and stored at −70° C. For the measurement of cytokines, the frozen culture supernatants were thawed and analysed for levels of the inflammatory cytokines using Luminex cytokine assay kits (R&D Systems) and an R&D Systems MAGPIX® analyser. Mean values±SDs were calculated for the levels of spontaneous cytokine production measured in biopsy culture supernatants from each treatment group.

In assay [7] the test system is isolated human neutrophil. Put plainly: In vitro assay of IL-8 neutrophil activation. In kind it is cell-based.

Take `COc1cn(-c2ccc(-n3cccn3)cc2F)nc(-c2ccnn2-c2ccccc2)c1=O` [TAK-063, 1-[2-fluoro-4-(1H-pyrazol-1-yl)phenyl]-5-methoxy-3-(1-phenyl-1H-pyrazol-5-yl)pyridazin-4(1H)-one]: in assay [1], the “secreted levels of IL-6” value was “significantly reduced” and the “secreted levels of IL-8” value was “significantly reduced”. Besides, the IC50 in assay [2] was above 5000 nM.
For the compound `Cn1cc(-c2ccccc2)nc1C#Cc1nc2c(c(N3CCOCC3)n1)CCN(CC1CC1)C2` [Example 15, 4-[7-(Cyclopropylmethyl)-2-[2-(1-methyl-4-phenyl-imidazol-2-yl)ethynyl]-6,8-dihydro-5H-pyrido[3,4-d]pyrimidin-4-yl]morpholine], the “PDE10A2 Phosphate Sensor Enzyme Assay (pIC50)” value in assay [3] turned out to be 8.72. The IC50 in assay [4] was 562 nM.
Regarding `C(#Cc1nc(-c2ccccc2)c[nH]1)c1nc(N2C[C@H]3COC[C@H]3C2)c2cnn(C3COC3)c2n1` [Example 27, (3aR,6aS)-5-(1-(Oxetan-3-yl)-6-((4-phenyl-1H-imidazol-2-yl)ethynyl)-1H-pyrazolo[3,4-d]pyrimidin-4-yl)hexahydro-1H-furo[3,4-c]pyrrole], in assay [3], the “PDE10A2 Phosphate Sensor Enzyme Assay (pIC50)” value turned out to be 9.49. For the same compound, the IC50 in assay [4] was 32.4 nM.
Regarding `Cn1cnc2c(N3C[C@H]4COC[C@H]4C3)nc(C#Cc3nc(-c4cccnc4)c[nH]3)nc21` [Example 31, (3aR,6aS)-5-(9-Methyl-2-((4-(pyridin-3-yl)-1H-imidazol-2-yl)ethynyl)-9H-purin-6-yl)hexahydro-1H-furo[3,4-c]pyrrole], the “PDE10A2 Phosphate Sensor Enzyme Assay (pIC50)” value in assay [3] came out at 8.95. Moreover, in assay [4], the IC50 is 3.98 nM.
Taken in the same sequence, the figures for `Cn1cc(-c2ccccc2)nc1C#Cc1nc(N2CCS(=N)(=O)CC2)c2cnn(C)c2n1` [Example 24, 1-Imino-4-(1-methyl-6-((1-methyl-4-phenyl-1H-imidazol-2-yl)ethynyl)-1H-pyrazolo[3,4-d]pyrimidin-4-yl)-1l6-thiomorpholine 1-oxide] were 10.10 and 1.2 nM.
Take `Cn1cnc2c(N3CC4(COC4)C3)nc(C#Cc3nc(-c4ccccc4)c[nH]3)nc21` [Example 7, 6-[9-Methyl-2-[2-(4-phenyl-1H-imidazol-2-yl)ethynyl]purin-6-yl]-2-oxa-6-azaspiro[3.3]heptane]: the “PDE10A2 Phosphate Sensor Enzyme Assay (pIC50)” value in assay [3] was 9.22. Further, in assay [4], the IC50 was 2.95 nM.
Regarding `Cn1ncc2c(N3C[C@H]4COC[C@H]4C3)nc(C#Cc3nc(-c4ccccc4)c[nH]3)nc21` [Example 9, (3aS,6aR)-5-[1-methyl-6-[2-(4-phenyl-1H-imidazol-2-yl)ethynyl]pyrazolo[3,4-d]pyrimidin-4-yl]-1,3,3a,4,6,6a-hexahydrofuro[3,4-c]pyrrole], the IC50 was 0.0251 nM in assay [3] (read-out: PDE10A2 Phosphate Sensor Enzyme Assay (pIC50) (converted)) and 0.603 nM in assay [4].
For `Cn1cc(-c2ccncc2)c(-c2ccc(OCc3ccc4ccccc4n3)cc2)n1` [PF-02545920], in assay [1], the “secreted levels of IL-6” value was “significantly reduced” and the “secreted levels of IL-8” value is recorded as “significantly reduced”. In addition, the “secreted levels of TNFα” value in assay [5] is “significantly reduced”. Besides, in assay [6], the “secreted levels of IL-6” value is “significantly reduced” and the “secreted levels of IL-8” value is reported as “significantly reduced”. In addition, in assay [7], the “IL-8 induced neutrophil activation” value is “dose dependently inhibited”. The IC50 in assay [2] was above 1000 nM.
`CC(C)n1ncc2c(N3C[C@H]4COC[C@H]4C3)nc(C#Cc3nc(-c4ccccc4)cn3C)nc21` [Example 18, (3aR,6aS)-5-(1-isoPropyl-6-((1-methyl-4-phenyl-1H-imidazol-2-yl)ethynyl)-1H-pyrazolo[3,4-d]pyrimidin-4-yl)hexahydro-1H-furo[3,4-c]pyrrole]: the “PDE10A2 Phosphate Sensor Enzyme Assay (pIC50)” value in assay [3] came to 9.99. The IC50 in assay [4] was 0.617 nM.
For the compound `Cn1cc(-c2cccnc2)nc1C#Cc1nc(N2CC3(COC3)C2)c2ncn(C)c2n1` [Example 2, 6-[9-Methyl-2-[2-[1-methyl-4-(3-pyridyl)imidazol-2-yl]ethynyl]purin-6-yl]-2-oxa-6-azaspiro[3.3]heptane], the “PDE10A2 Phosphate Sensor Enzyme Assay (pIC50)” value in assay [3] is recorded as 8.62. In addition, the IC50 in assay [4] was 1.55 nM.
